The source of these data is publication PMC8097335, “A High‐Affinity Calmodulin‐Binding Site in the CyaA Toxin Translocation Domain is Essential for Invasion of Eukaryotic Cells” (Advanced Science, 2021).

In assay [1] the target is CaM. As to conditions: quoted without reference; read-out: Kd of AC:CaM; cited from earlier work.
Assay [2] deals with adenylate cyclase (AC384GK, catalytic domain of CyaA). Description: CaM-dependent adenylate cyclase activity with or without calmidazolium. As to conditions: CDZ 10 µM, assayed in the presence of 1 µM CaM. The class given is biochemical, Bordetella pertussis. As for the experimental part: (§1) T PCK-treated trypsin (Millipore Sigma, Burlington, MA, USA) for 10 min at 30°C to digest the adenylate cyclase that remained at the external surface of the erythrocytes. A 5-fold excess of soybean trypsin inhibitor was added and cells were washed with buffer A and lysed with 0.1% Tween 20. The activity protected from trypsin digestion corresponds to the internalized toxin. Activities are expressed as percentages of total toxin added to the erythrocytes (taken as 100%) and represent average values from at least three independent measurements. One unit of CyaA activity corresponds to 1 μmol of cAM P formed per min at 30°C and pH 8.0. The bound and internalized AC activities measured with the CyaA recombinant proteins were normalized to that of the WT CyaA toxin. […]
(§2) then resuspended in cold buffer A plus 2 mM CaCl2 and split in two fractions. […] After addition of soybean trypsin inhibitor, the cells were washed with buffer A then lysed with 0.1% Tween 20 and the internalized AC activity protected from trypsin digestion was measured and expressed as a percentage of bound AC activity. […]
(§3) Tryptophan fluorescence is used for the SEC profiles because this allows monitoring the […]
Figure S15: CaM-dependent activation of AC with or without calmidazolium (C D Z ) . […] Th e adenylate cyclase activity is expressed as mol of cAMP per sec per mol of AC384GK. […]

Assay [3] has as its system CaM. The assay can be described thus: Size exclusion chromatography of P454, H and AC364 with CaM in the presence of CDZ. As to conditions: SEC, buffer B, CaM 15 µM, CDZ 40 µM, tryptophan fluorescence. The class given is binding. The protocol:
T PCK-treated trypsin (Millipore Sigma, Burlington, MA, USA) for 10 min at 30°C to digest the adenylate cyclase that remained at the external surface of the erythrocytes. A 5-fold excess of soybean trypsin inhibitor was added and cells were washed with buffer A and lysed with 0.1% Tween 20. The activity protected from trypsin digestion corresponds to the internalized toxin. Activities are expressed as percentages of total toxin added to the erythrocytes (taken as 100%) and represent average values from at least three independent measurements. One unit of CyaA activity corresponds to 1 μmol of cAM P formed per min at 30°C and pH 8.0. The bound and internalized AC activities measured with the CyaA recombinant proteins were normalized to that of the WT CyaA toxin.
For the CyaA intoxication experiments in the presence of calmidazolium (CDZ), in order to minimize the cell exposure to this potent CaM inhibitor, we performed a two-step intoxication assay as described originally by Rogel and Hanski 19. For this, the erythrocytes (5 x 10^8 cells/mL) were in a first step incubated with CyaA (1 μg/mL, 5.6 nM) in buffer A plus 2 mM CaCl2 at 4 °C for 30 min. In these conditions, the toxin can bind to the cell membrane but cannot translocate across membrane 19. […]
as §2
The SEC experiments were performed on a TSKgel G3000SW 7.5 mm ID * 30 cm - column equilibrated in buffer B at a flow rate of 0.6 mL/min at RT. The elution profiles were measured by absorbance at 280 nm, conductivity and by tryptophan fluorescence on a FP750 fluorometer (Ex.: 280 nm; Em.: 340 nm; bandwidths 10/10 nm ) equipped with a on -line cell .
as §3
weak fluorescence signal. […]
fluorescence signal. […]
Background: In gel filtration, larger molecules generally elute earlier.

In the next assay the target is holo-CaM. The settings on record: cited from earlier work.
The test system of a further assay is sheep erythrocytes. The assay can be described thus: Two-step CyaA intoxication assay with or without calmidazolium. The class given is cell-based. As to conditions: CyaA […] bound at 4 °C 30 min, 10 μM CDZ added just prior to shift from 4 to 37 °C; 2, 5, 10 min; three independent replicates. As for the experimental part: as §1, §2, §3

As a reminder, the Kd is the concentration at which binding is half-saturated. In general, Ki refers to the equilibrium dissociation constant of an inhibitor or competing ligand from its target.

Regarding “AC: N-terminal adenyl cyclase catalytic domain of CyaA, first 364 residues”, on CaM [1], the Kd was around 0.1 nM.
For the compound `Clc1ccc(C(c2ccc(Cl)cc2)n2cc[n+](CC(OCc3ccc(Cl)cc3Cl)c3ccc(Cl)cc3Cl)c2)cc1` (stereo not shown) [CDZ, Calmidazolium chloride], in assay [2], the “Effect on AC enzymatic activity” value was “no inhibitory effect”. For the same compound, the “Effect of CDZ on CaM association with the AC domain” value in the assay on CaM [3] (AC364 10 µM) is given as “not with the AC domain”. Further, in the assay with CaM [3] (H 10 µM), the “Effect of CDZ on the H:CaM complex” value was “partially inhibited”. The “Effect of CDZ on CaM association with P454” value with CaM [3] (P454 10 µM) is given as “can specifically inhibit”. For the same compound, the Ki at holo-CaM is 10 to 50 nM. Besides, the “Amount of internalized AC with CDZ” value in the assay on sheep erythrocytes is “drastically reduced”.
